Test results reported in patent publication US12338443B2, “Photoactivatable Tet expression control system” (JAPAN SCIENCE AND TECHNOLOGY AGENCY, priority 2018, dated 2025).

How the values were obtained:
[1] = system: pTREtight-Ub-ELuc reporter in HEK293T cells; assay: PA-Tet-independent / PA-Tet-ON construct luciferase assay with or without Dox (Example 3, Table 5); format: cell-based, human; settings: first batch; for An initial construct screening result: Light (relative luminescence signal intensity): blue light
Description: For each construct, a plasmid containing the expression cassette was introduced into HEK293T cells together with a pTREtight-Ub-ELuc reporter, thereby obtaining transformed cells. These cells were irradiated with blue light in the absence of Dox or in the presence of Dox, and the light-dependent transcriptional activity of Ub-ELuc was investigated. All experiments were performed in 3 independent trials (3 batches) to obtain consistent results.

[2] = system: pTREtight-Ub-ELuc reporter in HEK293T cells; assay: Relationship between Dox concentration and gene expression induction, near-infrared light (Table 9); format: cell-based, human; parameters: scale not given here; settings: 25 μM BV; for Light: near-infrared light 750 nm
Description: Next, for QT4, QT7 and QT8 constructs, the relationship between Dox concentration and gene expression induction was investigated. Specifically, the relationship was investigated in the same manner as in “Functional screening of PA-Tet-OFF candidate constructs” described above, except that HEK293T cells were seeded in a 24-well plate at 6×10^4 cells/well, the medium was replaced with a medium containing 25 μM BV and having Dox concentration described in Table 9 6 hours after transfection, the cells were irradiated with near-infrared light (750 nm, 4.0 mW/cm^2) for 42 hours by being exposed to light for 30 seconds every 180 seconds, and a 750 nm LED (SMBB750D-1100, manufactured by Ushio Inc.) was used as a light source. All experiments were performed in 3 independent trials (3 batches) to obtain consistent results.

[3] = system: pTREtight-Ub-ELuc reporter in HEK293T cells; assay: Relationship between Dox concentration and induced gene expression level (FIG. 7); format: cell-based, human
Description: In order to analyze the relationship between the Dox concentration and the induced gene expression level, HEK293T cells were seeded in a 24-well plate at 5 to 9×10^4 cells/well, transfected, and assayed in the same manner as in candidate construct screening. Dox was applied to the cells at concentrations of 0, 1, 7.5, 15, 20, 50, and 100 ng/mL for the PA-Tet-OFF constructs and at concentrations of 0, 10, 15, 20, 30, 35, 40, 50, 75, 100, and 250 ng/mL for the PA-Tet-ON constructs. The cells were irradiated with blue light (7.2 W/m^2; pulsed for 2 seconds every minute) for 3 hours.
In addition, for the PA-Tet-OFF system using the PA-Tet-OFF-T2A construct and the PA-Tet-independent system using the PA-Tet-H100Y construct, the influence of DOx concentration on the PA-Tet-controlled expression efficiency was investigated. Furthermore, for the PA-Tet-ON system using a construct obtained by introducing a V10 mutation into the PA-Tet-OFF-T2A construct (PA-Tet-ON-T2A construct), the influence of Dox concentration on the PA-Tet-controlled expression efficiency was investigated. The data represent mean±standard deviation (n=3) obtained from one experiment. In FIGS. 7(A) and 7(B), “*” means p<0.05 (paired student's t-test).

[4] = system: brain neurons of mouse pups; assay: Light- and Dox-dependent luciferase expression in brain neurons of mouse pups; format: in vivo; settings: PA-Tet-OFF system; after single dosing of Dox 0.1 mg/g
Description: For irradiating the brains of mouse pups with light, anesthetized mice were stimulated through an optical fiber using a blue LED (PLEXBRIGHT®, manufactured by Plexon Inc). After being irradiated with blue light (40 W/m^2; pulsed for 1 second every 15 seconds; continued for 3 hours), the mice were immediately sacrificed, the right brain irradiated with blue light was immediately extracted and lysed, and the luciferase activity thereof was measured.
The mice were treated with Dox. For long-term Dox administration, drinking water containing 1 mg/mL Dox in a 5% by mass sucrose solution was given to the mice. […]
Next, Dox-dependent inhibition of transcriptional activity of the PA-Tet-OFF system in brain neurons was analyzed. […] The luminescence signal intensity induced by the luciferase expression in the brain cells after the light irradiation treatment was measured. Furthermore, for mice treated with Dox (0.1 mg/g (body weight)) 1 hour before the light irradiation treatment, the luminescence signal intensity was also measured in the same manner. In the mouse brain neurons (represented by “Light” in FIG. 25) subjected to the light irradiation treatment, luciferase expression was activated, and the luminescence signal intensity increased. […]
Furthermore, the restoration of light-inducible transcriptional activity after removal of Dox was analyzed in cells transfected with the PA-Tet-OFF system. […]

[5] = target: T1, CIB1 (Arabidopsis thaliana, UniProt Q8GY61); settings: after light activation; cited from earlier work
T1 sequence (Q8GY61 1-335): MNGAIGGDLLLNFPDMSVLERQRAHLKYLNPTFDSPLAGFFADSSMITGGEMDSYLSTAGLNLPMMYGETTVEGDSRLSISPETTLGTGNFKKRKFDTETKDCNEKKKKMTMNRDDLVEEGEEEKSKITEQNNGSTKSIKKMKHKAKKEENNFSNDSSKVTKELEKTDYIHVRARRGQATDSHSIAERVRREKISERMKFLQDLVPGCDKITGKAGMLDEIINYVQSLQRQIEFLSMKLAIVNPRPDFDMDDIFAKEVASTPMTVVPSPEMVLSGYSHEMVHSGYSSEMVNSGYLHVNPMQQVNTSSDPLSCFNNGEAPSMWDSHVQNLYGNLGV

## T86: TetR(I194T)-SPKKK-CIBN no NLS + Cry2 PHR (L348F)-p65 AD-NLSx2 (Element #1 SEQ ID NO: 5, Element #2 SEQ ID NO: 6) [Construct T86]
[1]; Dox 0 ng/mL
  An initial construct screening result: Light (relative luminescence signal intensity): 12.3
[1]; Dox 75 ng/mL
  An initial construct screening result: Light (relative luminescence signal intensity): 0.1
[1]; Dox 75 ng/mL, dark
  An initial construct screening result: Dark (relative luminescence signal intensity): 0.1

## QT7: RpBphP1-TSTR-TetR(I194T) + p65AD-HMEF-Q-PAS1 (SEQ ID NO: 28, 29)
[2]; Dox 0 ng/mL
  Light: 53.7
[2]; Dox 1.0 ng/mL
  Dark: 2.9
  Light: 29.9
[2]; Dox 2.0 ng/mL
  Dark: 2.7
  Light: 34.7
[2]; Dox 3.0 ng/mL
  Light: 25.0
[2]; Dox 4.0 ng/mL
  Dark: 1.3
  Light: 17.6
[2]; Dox 5.0 ng/mL
  Dark: 1.6
  Light: 16.4
[2]; Dox 10.0 ng/mL
  Dark: 0.3
  Light: 3.7

## QT8: RpBphP1-TSTR-TetR(I194T) + 2xNLS-p65AD-HMEF-Q-PAS1 (SEQ ID NO: 28, 27)
[2]; Dox 0 ng/mL
  Light: 152.0
[2]; Dox 1.0 ng/mL
  Dark: 14.5
  Light: 143.1
[2]; Dox 2.0 ng/mL
  Dark: 17.1
  Light: 112.2
[2]; Dox 3.0 ng/mL
  Dark: 16.0
  Light: 108.7
[2]; Dox 4.0 ng/mL
  Dark: 15.1
  Light: 86.8
[2]; Dox 5.0 ng/mL
  Dark: 15.2
  Light: 63.9
[2]; Dox 10.0 ng/mL
  Dark: 3.1
  Light: 7.2

## QT4: TetR(I194T)-SPKKK-HMEF-RpBphP1 + 2xNLS-p65AD-HMEF-Q-PAS1 (SEQ ID NO: 26, 27)
[2]; Dox 0 ng/mL
  Light: 17.7
[2]; Dox 0.025 ng/mL
  Light: 20.6
[2]; Dox 0.050 ng/mL
  Light: 10.7
[2]; Dox 0.100 ng/mL
  Dark: 0.5
  Light: 10.1
[2]; Dox 0.200 ng/mL
  Dark: 0.3
  Light: 2.9
[2]; Dox 0.500 ng/mL
  Dark: 0.2
[2]; Dox 1.0 ng/mL
  Dark: 0.2
  Light: 0.2

## C[C@H]1c2cccc(O)c2C(=O)C2=C(O)[C@]3(O)C(=O)C(C(N)=O)=C(O)[C@@H](N(C)C)[C@@H]3[C@@H](O)[C@@H]21 [Dox, doxycycline]
[3]; PA-Tet-OFF system
  extremely low Dox concentration at which the effect brought about by Dox was observed: 1 ng/mL
[3]; PA-Tet-ON system
  extremely low Dox concentration at which the effect brought about by Dox was observed: 10 ng/mL
[4]
  duration of inhibition of light-induced luciferase expression: 4 days

B1: Cry2: Arabidopsis thaliana Cryptochrome 2 photoreceptor binding CIB1 in a blue light-specific manner (protein)
chain: MKMDKKTIVWFRRDLRIEDNPALAAAAHEGSVFPVFIWCPEEEGQFYPGRASRWWMKQSLAHLSQSLKALGSDLTLIKTHNTISAILDCIRVTGATKVVFNHLYDPVSLVRDHTVKEKLVERGISVQSYNGDLLYEPWEIYCEKGKPFTSFNSYWKKCLDMSIESVMLPPPWRLMPITAAAEAIWACSIEELGLENEAEKPSNALLTRAWSPGWSNADKLLNEFIEKQLIDYAKNSKKVVGNSTSLLSPYLHFGEISVRHVFQCARMKQIIWARDKNSEGEESADLFLRGIGLREYSRYICFNFPFTHEQSLLSHLRFFPWDADVDKFKAWRQGRTGYPLVDAGMRELWATGWMHNRIRVIVSSFAVKFLLLPWKWGMKYFWDTLLDADLECDILGWQYISGSIPDGHELDRLDNPALQGAKYDPEGEYIRQWLPELARLPTEWIHHPWDAPLTVLKASGVELGTNYAKPIVDIDTARELLAKAISRTREAQIMIGAAPDEIVADSFEALGANTIKEPGLCPSVSSNDQQVPSAVRYNGSKRVKPEEEEERDMKKSRGFDERELFSTAESSSSSSVFFVSQSCSLASEGKNLEGIQDSSDQITTSLGKNGCK
modifications: Cry2
[5]
  half-life of spontaneous dissociation from CIB1: about 5.5 minutes
